Test results taken from patent US9156853B2, “AKT inhibitor compounds for treatment of cancer” (ALMAC DISCOVERY LIMITED, priority 2012, dated 2015).
pIC50: −log10 of the molar value. Where a name gives a salt, the structure may show the parent alone.

Legend:
kinases other than AKT1 = assay: SelectScreen kinase panel (Invitrogen); type: biochemical; conditions: for >=80% in Selectscreen (at 10 uM) other than AKT1: number of kinases other than AKT1 with >=80% at 10 uM
Procedure: (§1) SelectScreen® data was determined at Invitrogen. Plasma protein binding and pharmacokinetic analyses were determined using standard protocols.

AKT1 = target: T1, AKT1 (Homo sapiens, UniProt P31749); assay: AKT Kinase Assay (IMAP fluorescent polarisation), AKT1 isoform; type: biochemical; conditions: for pIC50: activated AKT1, FAM Crosstide substrate; for potency against AKT1 compared with the comparator compound: compared with the non-hydroxylated Compound A, F or L
T1 construct: purchased SignalChem
Procedure: (§2) Testing of the compounds was performed using an AKT Kinase Assay:
(§3) Activated AKT isoforms 1, 2 and 3 were assayed utilising a 5′ FAM Crosstide (Seq. GRPRTSSFAEG-OH). The extent of kinase phosphorylation was determined by fluorescent polarisation using IMAP progressive binding reagent, which introduces binding beads which allow the reagent to specifically bind to phosphate residues via covalent co-ordination complex bonds.
(§4) iMAP binding solution stops Crosstide/kinase interaction and specifically binds phosphorylated substrates. The degree of phosphorylation is determined by fluorescent polarisation (excitation 485 nm; emission 528 nm) or the reduction in speed of rotation of the excited substrate.
(§5) The following materials were used in the assay: • a) Activated AKT isoforms (SignalChem.) dissolved in Complete Reaction buffer at a predetermined concentration selected so that the assay was carried out in the linear range. • b) AKT substrate peptide: FAM Crosstide (R7110) Molecular Devices, diluted in complete reaction buffer. • c) iMAP Progressive Screening Express Kit (R8127) Molecular Devices • d) Complete Reaction Buffer containing 0.1% BSA, 10 mM Tris-HCl, 10 mM MgCl2, 0.05% NaN3 and 0.01% phosphate free BSA, 1 mM DTT • e) Progressive Binding Solution containing 75% Buffer A, 25% Buffer B and low volume Binding Reagent which contains the binding entity for the assay • f) ATP diluted in complete reaction buffer • g) Black polystyrene 384 well assay plates (Nunc). • h) Biotek Synergy 4 Hybrid Plate reader.
(§6) 5 μl of test compound was dissolved in DMSO (Sigma Aldrich) and serially diluted in complete reaction buffer to give a fourteen point half log dose response and plated into 384 well black plates. The compound was incubated at room temperature with activated AKT isoform (5 μl) at the predetermined concentration, for 45 min.
(§7) 2.5 μl of ATP solution mixed with 2.5 μl of AKT substrate peptide (FAM Crosstide (R7110) Molecular Devices) were dispensed into each well and the plate centrifuged at 1000 rpm for 20 seconds to ensure homogenous mixing of reagents. The reaction mix was incubated in the dark for 1 h at room temperature.
(§8) The kinase reaction was stopped by the addition of Progressive Binding Solution and the mixture allowed to equilibrate for 1 h in the dark, at room temperature.
(§9) The fluorescent polarisation generated in each well was determined using a […] Synergy 4 Hybrid plate reader. In brief, each reaction solution was excited at 485 nm with the emission measured at 528 nm in both the parallel and perpendicular pathway.
(§10) The polarisation value generated in each well was calculated by Gen5 software (Biotek) and the % inhibition of kinase activity compared to vehicle control was calculated via GraphPad Prism. IC50 values for each compound were calculated by non-linear regression analysis using Prism software.
(§11) All plates were internally controlled by two methods. Firstly, by calculating the signal:noise ratio; based on kinase polarisation without inhibitor and polarisation generated by complete reaction buffer in the absence of activated kinase. Secondly by determining IC50 values generated by known inhibitors of the AKT isoforms.
(§12) The data was analysed using GraphPad Prism, with IC50 values generated using non-linear regression of the data set.

AKT3 = target: T2, AKT3 (Homo sapiens, UniProt Q9Y243); assay: AKT Kinase Assay (IMAP fluorescent polarisation), AKT3 isoform; type: biochemical; conditions: for pIC50: activated AKT3, FAM Crosstide substrate; for potency against AKT3 compared with the comparator compound: compared with the non-hydroxylated Compound A, F or L
T2 construct: purchased SignalChem
Procedure: as §2, §3, §4, §5, §6, §7, §8, §9, §10, §11, §12

[1] = test system: pAKT (Ser473) in PC3 cells; assay: Inhibition of pAKT in PC3 cells; type: cell-based; conditions: Homo sapiens, PC-3, 24 h incubation, read-out: inhibition of pAKT in PC3 cell lines, IC50
Procedure: Analysis of Compound Effects on AKT Signalling Pathways: Inhibition of pAKT in PC3 Cells
PC3 cells were seeded overnight in 96 well plates followed by serum starvation for 4 h. Increasing concentrations of AKT inhibitor, in complete medium (RPMI 1640), were added to the cells and incubated for a further 24 h.
The cells were fixed in paraformaldehyde, permeabilised and blocked in BSA, followed by incubation with pAKT (Ser473) and total AKT antibody overnight (R&D Systems). Secondary antibody mixture was added, followed by a combination of fluorescent substrates added for a final incubation.
Fluorescent intensities for each antibody were read at 540/600 nm and 360/450 nm respectively on a Synergy 4 plate reader. The percentage change in fluorescent intensity was plotted against log concentration of inhibitor; to generate IC50 values (GraphPad Prism).

AKT2 = target: T3, AKT2 (Homo sapiens, UniProt P31751); assay: AKT Kinase Assay (IMAP fluorescent polarisation), AKT2 isoform; type: biochemical; conditions: for pIC50: activated AKT2, FAM Crosstide substrate; for potency against AKT2 compared with the comparator compound: compared with the non-hydroxylated Compound A, F or L
T3 construct: purchased SignalChem
Procedure: as §2, §3, §4, §5, §6, §7, §8, §9, §10, §11, §12

[2] = Pharmacokinetic analysis, half-life in rat; type: in vivo; conditions: for half-life: rat, in vivo, read-out: T½ (rat) h
Procedure: as §1

[3] = Plasma protein binding (fraction unbound, human plasma); type: in vitro ADME
Procedure: as §1

T1 sequence (P31749 whole entry, canonical isoform): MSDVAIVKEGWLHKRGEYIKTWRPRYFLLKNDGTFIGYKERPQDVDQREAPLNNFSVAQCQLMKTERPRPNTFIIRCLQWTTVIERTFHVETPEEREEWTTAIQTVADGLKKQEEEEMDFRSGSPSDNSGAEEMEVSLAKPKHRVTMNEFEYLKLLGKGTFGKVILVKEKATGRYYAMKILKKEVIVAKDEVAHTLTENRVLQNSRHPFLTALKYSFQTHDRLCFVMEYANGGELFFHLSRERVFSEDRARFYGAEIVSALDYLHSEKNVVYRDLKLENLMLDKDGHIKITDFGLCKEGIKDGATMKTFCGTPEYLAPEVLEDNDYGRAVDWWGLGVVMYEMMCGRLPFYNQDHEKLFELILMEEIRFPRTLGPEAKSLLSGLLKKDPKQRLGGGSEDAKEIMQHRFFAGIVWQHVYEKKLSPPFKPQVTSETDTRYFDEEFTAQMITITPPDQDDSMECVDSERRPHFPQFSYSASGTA
T3 sequence (P31751 whole entry, canonical isoform): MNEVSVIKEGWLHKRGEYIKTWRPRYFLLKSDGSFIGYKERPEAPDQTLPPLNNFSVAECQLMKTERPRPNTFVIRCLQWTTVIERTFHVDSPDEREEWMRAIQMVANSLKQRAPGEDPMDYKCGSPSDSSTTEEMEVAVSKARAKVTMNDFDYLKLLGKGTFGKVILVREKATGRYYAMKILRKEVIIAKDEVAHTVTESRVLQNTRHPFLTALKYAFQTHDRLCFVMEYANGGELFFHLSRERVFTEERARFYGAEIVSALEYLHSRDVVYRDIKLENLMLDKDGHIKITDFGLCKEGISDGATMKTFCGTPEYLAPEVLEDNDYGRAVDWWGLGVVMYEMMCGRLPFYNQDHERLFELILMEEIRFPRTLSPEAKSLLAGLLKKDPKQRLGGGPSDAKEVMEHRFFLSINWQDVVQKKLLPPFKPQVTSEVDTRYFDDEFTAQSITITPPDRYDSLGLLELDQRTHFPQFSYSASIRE
T2 sequence (Q9Y243 whole entry, canonical isoform): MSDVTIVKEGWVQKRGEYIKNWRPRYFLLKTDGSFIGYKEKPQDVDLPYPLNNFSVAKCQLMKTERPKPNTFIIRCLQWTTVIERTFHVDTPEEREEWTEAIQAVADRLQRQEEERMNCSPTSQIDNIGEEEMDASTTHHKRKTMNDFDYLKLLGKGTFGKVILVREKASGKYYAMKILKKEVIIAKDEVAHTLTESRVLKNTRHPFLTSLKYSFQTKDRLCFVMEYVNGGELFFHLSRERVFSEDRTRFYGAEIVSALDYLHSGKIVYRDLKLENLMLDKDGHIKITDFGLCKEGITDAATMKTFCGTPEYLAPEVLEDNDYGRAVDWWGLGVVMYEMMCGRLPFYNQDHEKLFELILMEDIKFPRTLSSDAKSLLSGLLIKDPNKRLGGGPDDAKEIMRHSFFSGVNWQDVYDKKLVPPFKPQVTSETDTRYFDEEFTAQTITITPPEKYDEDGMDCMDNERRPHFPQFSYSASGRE

| >=80% in Selectscreen (at 10 uM) other than AKT1 (kinases other than AKT1) | pIC50 (AKT1) | potency against AKT1 compared with the comparator compound (AKT1) | pIC50 (AKT3) | potency against AKT3 compared with the comparator compound (AKT3) | pIC50 [1] | pIC50 (AKT2) | potency against AKT2 compared with the comparator compound (AKT2) | half-life [2] [h] | T1/2 in rodent compared with Compound A [2] | fraction unbound [3] | unbound fraction (human plasma) compared with Compound A [3] | off-target kinase activity in the SelectScreen panel compared with Compound A (kinases other than AKT1; compared with compound A) | Structure (SMILES) |
| --- | --- | --- | --- | --- | --- | --- | --- | --- | --- | --- | --- | --- | --- |
| * (>2 kinases) | 5.82 to 6.52 | improved potency | 5.22 to 6.00 | improved potency | ≥ 6.30 | ≥ 7.70 | improved potency | ≤ 10 | shorter T1/2 | ≥ 0.05 | significantly higher unbound fraction |  | C[C@]1(O)C[C@](N)(c2ccc(-c3oc4ncn(CC(F)(F)F)c(=O)c4c3-c3ccccc3)cc2)C1 [Compound 1, 6-(4-((1s,3s)-1-Amino-3-hydroxy-3-methylcyclobutyl)phenyl)-5-phenyl-3-(2,2,2-trifluoroethyl)furo[2,3-d]pyrimidin-4(3H)-one.HCl] |
|  | < 5.82 |  | < 5.22 |  | ≥ 6.30 | ≥ 7.70 | improved potency |  |  |  |  |  | N[C@]1(c2ccc(-c3oc4ncn(CC(F)(F)F)c(=O)c4c3-c3ccccc3)cc2)C[C@@H](O)C1 [Compound 2, 6-(4-((1r,3r)-1-Amino-3-hydroxycyclobutyl)phenyl)-5-phenyl-3-(2,2,2-trifluoroethyl)furo[2,3-d]pyrimidin-4(3H)-one. HCl] |
|  | 5.82 to 6.52 | improved potency | 5.22 to 6.00 | improved potency | ≥ 6.30 | ≥ 7.70 | improved potency |  |  |  |  |  | N[C@]1(c2ccc(-c3oc4ncn(CC(F)(F)F)c(=O)c4c3-c3ccccc3)cc2)C[C@H](O)C1 [Compound 3, 6-(4-((1s,3s)-1-Amino-3-hydroxycyclobutyl)phenyl)-5-phenyl-3-(2,2,2-trifluoroethyl)furo[2,3-d]pyrimidin-4(3H)-one.HCl] |
| ** (1-2 kinases) | ≥ 6.52 | improved potency | ≥ 6.00 | improved potency | ≥ 6.30 | ≥ 7.70 | improved potency |  |  |  |  | less off-target kinase activity | C[C@]1(O)C[C@@](N)(c2ccc(-c3oc4ncn(CC(F)(F)F)c(=O)c4c3-c3ccccc3)cc2)C1 [Compound 4, 6-(4-((1r,3r)-1-Amino-3-hydroxy-3-methylcyclobutyl)phenyl)-5-phenyl-3-(2,2,2-trifluoroethyl)furo[2,3-d]pyrimidin-4(3H)-one.HCl] |
| ** (1-2 kinases) | ≥ 6.52 | improved potency | 5.22 to 6.00 | improved potency | ≥ 6.30 | 7.00 to 7.70 | improved potency | ≤ 10 | shorter T1/2 | 0.02 to 0.05 | significantly higher unbound fraction |  | C[C@]1(O)C[C@@](N)(c2ccc(-c3sc4ncn(CC(F)(F)F)c(=O)c4c3-c3ccccc3)cc2)C1 [Compound 5, 6-(4-((1r,3r)-1-Amino-3-hydroxy-3-methylcyclobutyl)phenyl)-5-phenyl-3-(2,2,2-trifluoroethyl)thieno[2,3-d]pyrimidin-4(3H)-one.TFA] |
| *** (0 kinases) | ≥ 6.52 | improved potency | 5.22 to 6.00 | improved potency | ≥ 6.30 | ≥ 7.70 | improved potency | ≤ 10 | shorter T1/2 | 0.02 to 0.05 | significantly higher unbound fraction |  | Cn1c(-c2ccc([C@]3(N)C[C@](C)(O)C3)cc2)c(-c2ccccc2)c2c(=O)n(CC(F)(F)F)cnc21 [Compound 6, 6-(4-((1r,3r)-1-Amino-3-hydroxy-3-methylcyclobutyl)phenyl)-7-methyl-5-phenyl-3-(2,2,2-trifluoroethyl)-3H-pyrrolo[2,3-d]pyrimidin-4(7H)-one.HCl] |
|  | 5.82 to 6.52 | improved potency | 5.22 to 6.00 | improved potency | ≥ 6.30 | ≥ 7.70 | improved potency |  |  |  |  |  | Cn1c(-c2ccc([C@]3(N)C[C@@H](O)C3)cc2)c(-c2ccccc2)c2c(=O)n(CC(F)(F)F)cnc21 [Compound 7, 6-(4-((1s,3s)-1-Amino-3-hydroxycyclobutyl)phenyl)-7-methyl-5-phenyl-3-(2,2,2-trifluoroethyl)-3H-pyrrolo[2,3-d]pyrimidin-4(7H)-one.HCl] |
| * (>2 kinases) | < 5.82 |  | < 5.22 |  |  | 7.00 to 7.70 |  | > 24 |  | ≤ 0.02 |  |  | NC1(c2ccc(-c3oc4ncn(CC(F)(F)F)c(=O)c4c3-c3ccccc3)cc2)CCC1 [Compound A, reference compound] |
